Assay results: patent publication US6452008B2, “Pyridone derivatives and process for preparing the same” (Sumitomo Pharmaceuticals Company, Limited, priority 1998, dated 2002)

Target: T1, ACAT (Rattus norvegicus, UniProt O70536)
T1 construct: The rat peritoneal-derived macrophage was prepared; endogenous in cells; host or cells: rat peritoneal macrophages (primary)
T1 sequence (O70536 1-545): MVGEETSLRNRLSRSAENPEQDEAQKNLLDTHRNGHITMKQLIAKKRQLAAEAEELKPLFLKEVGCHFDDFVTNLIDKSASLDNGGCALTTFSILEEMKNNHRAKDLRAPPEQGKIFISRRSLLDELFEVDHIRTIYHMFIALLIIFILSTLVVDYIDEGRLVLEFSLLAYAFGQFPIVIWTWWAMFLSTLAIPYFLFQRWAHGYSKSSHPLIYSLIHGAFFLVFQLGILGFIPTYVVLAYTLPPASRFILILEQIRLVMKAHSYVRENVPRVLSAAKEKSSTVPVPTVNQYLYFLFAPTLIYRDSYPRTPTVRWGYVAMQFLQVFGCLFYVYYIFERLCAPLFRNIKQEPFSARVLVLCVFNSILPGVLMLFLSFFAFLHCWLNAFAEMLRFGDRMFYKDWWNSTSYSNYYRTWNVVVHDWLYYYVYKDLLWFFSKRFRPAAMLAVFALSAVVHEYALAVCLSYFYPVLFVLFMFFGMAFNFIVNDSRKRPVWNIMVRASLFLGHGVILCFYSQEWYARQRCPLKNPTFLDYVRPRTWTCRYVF
Experiment: Assay of ACAT inhibitory activity in the macrophage derived from rat peritoneal
Type: cell-based
Conditions: [9,10-3H]oleic acid, exogenous cholesterol in liposome
Procedure: 2. Assay of ACAT inhibitory activity in the macrophage derived from rat peritoneal:
The rat peritoneal-derived macrophage was prepared according to the method disclosed in the literature: Biochimica et Biophysica Acta, 1126, 73-80, 1992. The ACAT activity was determined by a modified method of the method disclosed in the above literature: Biochimica et Biophysica Acta, 1126, 73-80, 1992, i.e., using radioactive [9,10-^3H]oleic acid and exogenous cholesterol contained in the liposome which was re-constituted according to the method disclosed in the literature: Biochimica et Biophysica Acta, 1213, 127-134, 1994, and calculated from the radioactivity of the labeled cholesterolyl oleate.

`CCCCn1cc(C)c(-c2cc(C#CCN(CC)CC)ccc2OC)c(NC(=O)Nc2c(C(C)C)cccc2C(C)C)c1=O` [Example 18, N-[1-butyl-2-oxo-4-[5-{3-(diethylamino)-1-propynyl}-2-methoxy]phenyl-5-methyl-1,2-dihydropyridin-3-yl]-N′-(2,6-diisopropylphenyl) urea] gave an IC50 of 16 nM.
